Data published in ChEMBL document CHEMBL1152065, “Synthesis and anti-HIV activity of 9-[(2R-5R)-2,5-dihydro-5-(phosphonomethoxy)-2-furanyl]-2,6-diaminopurine” (Bioorg Med Chem Lett, 1992).
Values joined by “and” are separate entries in the source; they are usually repeats but may differ in a detail not shown here. Equal entries are not always repeated.

Key:
[1] = Concentration of compound affecting viability of the uninfected cells by 50% when assayed in parallel with antiviral assay in MT-4 cells; assay type: cell-based, MT4; conditions: human, uninfected MT-4 cells; read-out: TC50 (the source's name)
MT4 [2] = assay: Compound was evaluated for its ability to Inhibit HIV replication in MT-4 cells; assay type: functional, cell-based, Homo sapiens
MT4 [3] = assay: The compound was evaluated for its ability to Inhibit HIV replication in MT-4 cells; assay type: functional, cell-based; conditions: Homo sapiens

Structure (SMILES): Nc1nc(N)c2ncn([C@H]3C=C[C@@H](OCP(=O)(O)O)O3)c2n1
- CC50 [1]: > 100 µM
- IC50 (MT4 [2]; Homo sapiens, MT4): 82.5 µM

Structure (SMILES): Nc1ncnc2c1ncn2[C@H]1C=C[C@@H](OCP(=O)(O)O)O1
- CC50 [1]: > 100 µM
- IC50 (MT4 [2]; Homo sapiens, MT4): 4.3 µM

Structure (SMILES): Nc1ncnc2c1ncn2CCOCP(=O)(O)O [ADEFOVIR]
- CC50 [1]: 40 µM
- IC50 (MT4 [2]; mt4): 6.5 µM and 2 µM

Structure (SMILES): Nc1nc(N)c2ncn(CCOCP(=O)(O)O)c2n1 [PMEDAP]
- IC50 (MT4 [3]): 1 µM
